Data reported in patent US20160175249A1, “Liposomes Containing Oligopeptide Fragments of Myelin Basic Protein, a Pharmaceutical Composition and a Method for Treatment of Multiple Sclerosis” (LIPOXEN TECHNOLOGIES LIMITED, priority 2009, published 2016).

How the values were obtained:
[1] = tested on: experimental allergic encephalomyelitis (EAE) in DA rats; experiment: Treatment of EAE in DA rats with liposomally encapsulated MBP peptides (Example 5); type: in vivo; conditions: 150 μg per animal daily subdermally days 6-11, score 0-5
Method: To induce experimental allergic encephalomyelitis (EAE) in DA rats having a mass of 220-250 g ([…]), 10 μg of myelin basic protein encephalogenic peptide fragment ARTTHYGSLPQKSQRSQ (SEQ ID NO:4; Anaspec, US) emulsified in Freund's complete adjuvant (Difco, US) at a concentration of 10% (m/v) was subdermally injected into the forepaw. The rats were weighted and monitored for EAE neurological symptoms daily. The EAE symptom profile of each rate was scored according to the following scale: (0)—absence of EAE symptoms; (1)—decrease in tail tonicity; (2)—decrease in righting reflex; (3)—paresis; (4)—full paralysis; and (5)—agony or death. Intermediary symptoms were scored by increasing or decreasing the value by 0.5 units. Six days after EAE induction, animals were randomly distributed into several groups (12 animals each).
Between days six and eleven after induction, rats in each respective group were subdermally injected with the liposomal preparation described in Example 2 (emulsified in phosphate saline solution, pH 7.4), a positive control preparation of glatiramer acetate (GA; copaxone, Teva Pharmaceutical Industries Ltd, Israel), a prototype peptide: DENPVVIIFFKNIVTPRT (SEQ ID NO:5), or a buffered phosphate saline solution (pH 7.4) placebo. The peptide, Glatiramer acetate, and liposomal preparations were formulated immediately prior to administration using buffered phosphate saline solution (pH 7.4). 0.1 mL of each composition was administered daily at a concentration of 150 μg per animal.

[2] = tested on: multiple sclerosis (cerebrospinal form, remissive course); experiment: Treatment of a human subject diagnosed with multiple sclerosis (Example 7); type: in vivo; conditions: patient, 500 mg once every two weeks
Text: A patient diagnosed with multiple sclerosis (cerebrospinal form, remissive course), in the relapse stage, was previously subjected to repeated corticosteroid treatment. […] At the time of treatment, the patient presented with: lateral nystagmus when looking to the right, active tendon reflex, S<D in the legs, active upper abdominal reflex, absent middle and lower abdominal reflex, bilateral Babinski's symptom, foot clonus (more expressed in the right foot), no paresis in the extremities, muscle tonicity unchanged, ataxic gait, loss of balance in the Romberg stance, ataxia when performing hccl-shin test, and urine retention. The value of the patient's neurological deficit on the EDSS scale was 6.
The patient also presented with ophthalmic blanching of temporal halves of optic nerve heads. After studying the patient's PBMC, the activity of T-lymphocytcs with respect to MBP was determined at a stimulation index (SI) of 7.45. Levels of serum IgG antibodies were 75 units per ml.
With the patient's consent, the prototype peptide composition was administered once every two weeks at a dosage of 500 mg. 7 days after each injection, the patient's peripheral (venous) blood was sampled in order to determine changes in T-lymphocyte activity with respect to MBP, as well as autoantibody levels. […] At week four, the patients IgG autoantibody level increased to 112 units per mL, and T-cell SI doubled. […]

“DENPVVIIFFKNIVTPRT (a prototype peptide) [prototype peptide used as comparator]” was tested, and the “Evaluation of EAE symptom intensity, average” value (“Evaluation” for short) ([1]; day 0 after EAE induction) was 0.00, the “Evaluation” value ([1]; day 1 after EAE induction) was 0.00 and the “Evaluation” value ([1]; day 2 after EAE induction) was 0.00. For the same sequence, the “Evaluation” value ([1]; day 3 after EAE induction) was 0.00, the “Evaluation” value ([1]; day 4 after EAE induction) was 0.00 and the “Evaluation” value ([1]; day 5 after EAE induction) was 0.00. The “Evaluation” value ([1]; day 6 after EAE induction) was 0.00, the “Evaluation” value ([1]; day 7 after EAE induction) was 0.00 and the “Evaluation” value ([1]; day 8 after EAE induction) was 0.58. The “Evaluation” value ([1]; day 9 after EAE induction) was 1.33, the “Evaluation” value ([1]; day 10 after EAE induction) was 2.42 and the “Evaluation” value ([1]; day 11 after EAE induction) was 2.33. The “Evaluation” value ([1]; day 12 after EAE induction) was 2.50, the “Evaluation” value ([1]; day 13 after EAE induction) was 2.17 and the “Evaluation” value ([1]; day 14 after EAE induction) was 2.00. For the same sequence, the “Evaluation” value ([1]; day 15 after EAE induction) was 1.83, the “Evaluation” value ([1]; day 16 after EAE induction) was 1.67 and the “Evaluation” value ([1]; day 17 after EAE induction) was 1.33. The “Evaluation” value ([1]; day 18 after EAE induction) was 1.42, the “Evaluation” value ([1]; day 19 after EAE induction) was 1.08 and the “Evaluation” value ([1]; day 20 after EAE induction) was 0.83. For the same sequence, the “Evaluation” value ([1]; day −1 after EAE induction) was 0.00, the “clinical presentation of MS” value ([2]; over the course of 7 weeks) was “progressed slightly” and the “T-cell SI” value ([2]; week four, before treatment 7.45) was “doubled”.
